PMC11358156 (Nature Cardiovascular Research, 2024)
pIC50: −log10 of the molar value.

Assays:
β-cardiac myosin (β-MHC) = target: T1, β-cardiac myosin (β-MHC) (Bos taurus, UniProt Q9BE39); test: co-crystal structure at […] Å with aficamten and vanadate; assay type: binding
T1 construct: gene MYH7; motor domain (MD) in the pre-powerstroke state

[1] = target: T2, fast skeletal myosin MYH1 (Oryctolagus cuniculus, UniProt A0A5F9CQ93); test: myofibril ATPase assay; assay type: biochemical
T2 construct: with sarcomere proteins (actin, troponin, tropomyosin) of the myofibril
T2 sequence (P02602 2-192): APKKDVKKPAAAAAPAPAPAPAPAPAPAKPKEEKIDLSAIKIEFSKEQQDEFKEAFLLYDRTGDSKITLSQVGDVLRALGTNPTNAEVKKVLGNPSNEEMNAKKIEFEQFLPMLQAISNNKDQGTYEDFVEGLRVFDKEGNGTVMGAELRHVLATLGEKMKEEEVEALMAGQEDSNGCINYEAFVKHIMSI
T2 sequence (P02608 2-170, further chain): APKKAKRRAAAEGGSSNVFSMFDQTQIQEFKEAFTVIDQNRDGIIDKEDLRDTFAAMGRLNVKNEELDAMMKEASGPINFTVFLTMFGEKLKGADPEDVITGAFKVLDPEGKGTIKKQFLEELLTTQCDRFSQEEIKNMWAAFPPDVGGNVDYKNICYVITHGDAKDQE
T2 sequence (A0A5F9CQ93 entry or part of it): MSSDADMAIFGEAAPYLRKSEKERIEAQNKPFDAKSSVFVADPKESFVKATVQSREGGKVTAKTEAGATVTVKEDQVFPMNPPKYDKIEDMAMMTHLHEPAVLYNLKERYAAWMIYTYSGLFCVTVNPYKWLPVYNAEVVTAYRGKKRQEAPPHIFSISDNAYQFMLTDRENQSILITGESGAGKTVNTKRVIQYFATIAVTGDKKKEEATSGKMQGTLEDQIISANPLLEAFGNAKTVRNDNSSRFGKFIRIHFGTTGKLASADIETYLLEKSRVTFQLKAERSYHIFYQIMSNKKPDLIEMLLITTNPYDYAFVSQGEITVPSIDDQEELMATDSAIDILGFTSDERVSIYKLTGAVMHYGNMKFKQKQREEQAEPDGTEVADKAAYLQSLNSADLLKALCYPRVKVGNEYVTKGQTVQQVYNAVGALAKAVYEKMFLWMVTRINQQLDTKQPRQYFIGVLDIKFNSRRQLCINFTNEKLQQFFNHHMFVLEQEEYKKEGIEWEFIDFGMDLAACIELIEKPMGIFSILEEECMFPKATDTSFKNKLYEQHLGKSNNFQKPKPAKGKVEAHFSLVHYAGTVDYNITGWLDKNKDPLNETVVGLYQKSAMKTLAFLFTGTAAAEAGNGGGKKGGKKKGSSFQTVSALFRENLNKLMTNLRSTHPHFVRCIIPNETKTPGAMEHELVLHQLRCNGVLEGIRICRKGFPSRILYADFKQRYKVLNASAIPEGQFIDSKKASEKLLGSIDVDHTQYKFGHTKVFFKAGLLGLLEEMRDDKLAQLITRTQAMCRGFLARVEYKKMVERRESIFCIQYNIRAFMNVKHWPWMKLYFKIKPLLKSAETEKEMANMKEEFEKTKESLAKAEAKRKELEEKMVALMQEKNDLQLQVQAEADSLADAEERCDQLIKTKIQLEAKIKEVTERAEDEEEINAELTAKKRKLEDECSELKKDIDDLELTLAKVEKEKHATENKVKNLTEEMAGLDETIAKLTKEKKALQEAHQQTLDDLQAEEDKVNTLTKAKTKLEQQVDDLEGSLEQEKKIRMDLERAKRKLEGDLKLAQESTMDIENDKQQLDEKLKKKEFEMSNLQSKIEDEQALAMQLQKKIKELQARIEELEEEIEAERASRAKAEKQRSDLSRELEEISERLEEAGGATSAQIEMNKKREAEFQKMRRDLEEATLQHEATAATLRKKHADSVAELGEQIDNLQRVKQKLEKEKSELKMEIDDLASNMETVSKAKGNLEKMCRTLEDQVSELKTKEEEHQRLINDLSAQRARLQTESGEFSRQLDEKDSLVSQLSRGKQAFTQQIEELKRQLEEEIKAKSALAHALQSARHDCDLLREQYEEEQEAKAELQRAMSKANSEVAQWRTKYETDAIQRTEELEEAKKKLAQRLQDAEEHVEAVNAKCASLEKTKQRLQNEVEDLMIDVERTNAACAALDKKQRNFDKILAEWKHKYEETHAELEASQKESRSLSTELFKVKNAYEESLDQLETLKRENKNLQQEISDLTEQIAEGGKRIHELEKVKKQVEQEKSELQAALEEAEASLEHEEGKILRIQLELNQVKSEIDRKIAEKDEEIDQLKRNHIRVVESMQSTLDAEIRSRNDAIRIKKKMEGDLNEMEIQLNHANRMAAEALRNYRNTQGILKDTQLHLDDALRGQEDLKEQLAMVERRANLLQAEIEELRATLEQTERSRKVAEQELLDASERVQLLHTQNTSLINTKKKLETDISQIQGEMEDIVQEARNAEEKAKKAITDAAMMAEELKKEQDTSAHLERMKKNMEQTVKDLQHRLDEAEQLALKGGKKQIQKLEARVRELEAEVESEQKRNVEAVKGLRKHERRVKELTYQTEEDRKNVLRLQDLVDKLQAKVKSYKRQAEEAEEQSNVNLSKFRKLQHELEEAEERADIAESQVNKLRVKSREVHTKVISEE

T1 sequence (Q9BE39 1-782): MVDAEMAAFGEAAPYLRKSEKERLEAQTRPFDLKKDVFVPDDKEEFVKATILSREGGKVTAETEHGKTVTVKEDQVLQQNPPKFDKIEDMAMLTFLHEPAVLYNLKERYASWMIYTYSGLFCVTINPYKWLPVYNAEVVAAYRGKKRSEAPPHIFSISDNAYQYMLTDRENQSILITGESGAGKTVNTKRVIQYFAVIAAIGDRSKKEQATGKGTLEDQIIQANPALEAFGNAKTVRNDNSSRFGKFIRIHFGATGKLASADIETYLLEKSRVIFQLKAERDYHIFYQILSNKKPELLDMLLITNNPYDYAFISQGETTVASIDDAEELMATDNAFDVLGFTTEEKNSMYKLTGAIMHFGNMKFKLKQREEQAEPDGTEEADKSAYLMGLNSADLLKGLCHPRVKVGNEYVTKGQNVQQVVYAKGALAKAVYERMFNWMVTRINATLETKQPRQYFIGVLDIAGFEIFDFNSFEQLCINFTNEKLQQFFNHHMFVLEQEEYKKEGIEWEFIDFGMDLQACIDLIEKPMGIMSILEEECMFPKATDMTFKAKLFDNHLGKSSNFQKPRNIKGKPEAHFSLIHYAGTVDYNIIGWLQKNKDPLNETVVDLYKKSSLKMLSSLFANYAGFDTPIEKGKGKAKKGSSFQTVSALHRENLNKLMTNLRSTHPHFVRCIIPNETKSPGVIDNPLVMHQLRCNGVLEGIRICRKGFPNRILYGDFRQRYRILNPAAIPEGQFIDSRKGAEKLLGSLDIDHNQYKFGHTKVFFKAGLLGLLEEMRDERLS

Row | pIC50 [1] | Structure (SMILES) | co-crystal structure at 2.33 Å with aficamten and vanadate (β-cardiac myosin (β-MHC))
1 |  | Nc1ncnc2c1ncn2[C@@H]1O[C@H](COP(=O)(O)OP(=O)(O)O)[C@@H](O)[C@H]1O [ADP] | the upper inset displays ADP and Vanadate and the lower inset displays aficamten
2 | 5.19 | CCc1nc(-c2ccc3c(c2)CC[C@H]3NC(=O)c2cnn(C)c2)no1 [aficamten] | 
